According to US7973012B2, “C-phenyl glycitol compound” (Taisho Pharmaceutical Co., Ltd, priority 2006, dated 2011):

Legend:
[1] = target: T1, human SGLT2 (Homo sapiens, UniProt P31639); test: Inhibition test of sodium-dependent sugar uptake in CHO-k1 cells stably expressing human SGLT2; assay type: cell-based; settings: for SGLT2 % inhibition at 100 nM: sugar uptake inhibition rate at 100 nM test compound vs control group; for IC50: CHO-k1 cells expressing human SGLT2, [14C]methyl α-D-glucopyranoside uptake, 37° C., an hour
T1 construct: expressed in transfected cells; host or cells: CHO-k1
T1 sequence (P31639 1-672): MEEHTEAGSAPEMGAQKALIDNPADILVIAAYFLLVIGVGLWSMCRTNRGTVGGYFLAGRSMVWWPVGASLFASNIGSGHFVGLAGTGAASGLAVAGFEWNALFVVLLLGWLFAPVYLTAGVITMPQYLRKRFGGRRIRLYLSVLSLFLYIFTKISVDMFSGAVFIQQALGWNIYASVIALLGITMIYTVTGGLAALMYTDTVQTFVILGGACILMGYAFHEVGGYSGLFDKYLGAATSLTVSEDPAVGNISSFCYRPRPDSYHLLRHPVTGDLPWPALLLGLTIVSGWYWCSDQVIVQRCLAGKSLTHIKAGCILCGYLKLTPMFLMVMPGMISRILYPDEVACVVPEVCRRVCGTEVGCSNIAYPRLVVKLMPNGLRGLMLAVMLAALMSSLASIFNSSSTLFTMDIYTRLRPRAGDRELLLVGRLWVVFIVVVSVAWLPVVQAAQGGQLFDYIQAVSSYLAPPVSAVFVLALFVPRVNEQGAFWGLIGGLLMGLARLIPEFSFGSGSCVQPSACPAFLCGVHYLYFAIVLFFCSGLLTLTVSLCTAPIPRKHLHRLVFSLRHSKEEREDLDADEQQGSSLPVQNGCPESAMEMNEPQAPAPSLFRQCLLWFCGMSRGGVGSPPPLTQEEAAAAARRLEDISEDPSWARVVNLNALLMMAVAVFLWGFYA
Description: (§1) An SGLT1 sequence (NM_000343) was reverse-transcripted from human small intestinal mRNA, then amplified, and then introduced into pCMV-tag5A from Stratagene Corporation. An SGLT2 sequence (NM_003041) was prepared from human nephric mRNA as with the above method, and then introduced into pcDNA3.1+hygro from Invitrogen Corporation. Each cloned sequence was confirmed to be identical with the reported sequence.
(§2) The human SGLT1 and human SGLT2 expression vectors were transfected into CHO-k1 cells by using Lipofectamine 2000 from Invitrogen Corporation. The SGLT expression cells were incubated in the presence of Geneticin (SGLT1) or Hygromycin B (SGLT2) at a 500 μg/mL concentration to select resistant strains, and specific activity of sugar uptake was obtained as an indicator by the following system.
(§3) Cells stably expressing human SGLT1 and human SGLT2 were used for the inhibition test of sodium-dependent glucose uptake.
(§4) The cells were incubated in a pretreatment buffer A (200 μL for SGLT1, and 2 mL for SGLT2) for 20 minutes. The pretreatment buffer was removed and an uptake buffer B (75 μL for SGLT1, and 200 μL for SGLT2) containing a test compound was added to conduct an uptake reaction at 37° C. for 30 minutes (SGLT1) or an hour (SGLT2). After the reaction, the cells were washed with a washing buffer C twice (200 μL for SGLT1, and 2 mL for SGLT2), and then dissolved in a 0.2 M solution of NaOH (75 μL for SGLT1, and 400 μL for SGLT2). After a liquid scintilater was added thereto and mixed sufficiently, radioactivity was measured with microBETA (SGLT1) or a liquid scintillation counter from Beckman Coulter, Inc (SGLT2). As a control group, an uptake buffer containing no test compound was prepared. In addition, as the basic uptake buffer, an uptake buffer B containing choline chloride instead of NaCl was prepared. • A pretreatment buffer A: 140 mM choline chloride, 2 mM KCl, 1 mM CaCl2, 1 mM MgCl2, 10 mM HEPES/5 mM Tris, pH 7.4. • An uptake buffer B: 1 mM of methyl α-D-glucopyranoside containing [^14C]methyl α-D-glucopyranoside, 140 mM NaCl, 2 mM KCl, 1 mM CaCl2, 1 mM MgCl2, 10 mM HEPES/5 mM Tris, pH 7.4. • A washing buffer C: 10 mM methyl α-D-glucopyranoside, 140 mM choline chloride, 2 mM KCl, 1 mM CaCl2, 1 mM MgCl2, 10 mM HEPES/5 mM Tris, pH 7.4.
(§5) In order to obtain IC50 values, test compounds having adequate 6 concentrations were used and the test compound concentrations (IC50 values) at which sugar uptake is inhibited by 50% in comparison with the amount of sugar uptake (100%) of the control group were calculated.
(§6) In addition, the sugar uptake inhibition rates at 100 nM concentration of the test compound in comparison with the control group are shown in Table 7.

[2] = target: T2, human SGLT1 (Homo sapiens, UniProt P13866); test: Inhibition test of sodium-dependent sugar uptake in CHO-k1 cells stably expressing human SGLT1; assay type: cell-based; settings: for SGLT1 % inhibition at 100 nM: sugar uptake inhibition rate at 100 nM test compound vs control group; for IC50: CHO-k1 cells expressing human SGLT1, [14C]methyl α-D-glucopyranoside uptake, 37° C., 30 minutes
T2 construct: expressed in transfected cells; host or cells: CHO-k1
T2 sequence (P13866 1-664): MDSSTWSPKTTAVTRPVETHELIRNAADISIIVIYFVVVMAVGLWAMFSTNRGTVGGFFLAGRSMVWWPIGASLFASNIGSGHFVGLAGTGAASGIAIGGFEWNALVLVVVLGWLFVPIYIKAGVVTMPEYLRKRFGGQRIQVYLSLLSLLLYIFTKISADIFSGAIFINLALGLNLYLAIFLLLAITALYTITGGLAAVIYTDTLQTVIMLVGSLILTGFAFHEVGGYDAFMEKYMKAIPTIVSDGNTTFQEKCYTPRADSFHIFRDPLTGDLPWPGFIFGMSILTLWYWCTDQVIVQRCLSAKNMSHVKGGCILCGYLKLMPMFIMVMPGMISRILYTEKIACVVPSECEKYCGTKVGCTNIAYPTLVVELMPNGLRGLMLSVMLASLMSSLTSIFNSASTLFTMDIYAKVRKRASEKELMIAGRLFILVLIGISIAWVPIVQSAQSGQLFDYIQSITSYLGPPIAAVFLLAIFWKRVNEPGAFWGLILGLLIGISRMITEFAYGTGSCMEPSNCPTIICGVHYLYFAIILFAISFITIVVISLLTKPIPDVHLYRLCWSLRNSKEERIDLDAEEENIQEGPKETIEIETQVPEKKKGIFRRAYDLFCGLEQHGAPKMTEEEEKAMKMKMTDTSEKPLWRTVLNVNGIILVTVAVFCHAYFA
Description: as §1, §2, §3, §4, §5, §6

| SMILES | SGLT2 % inhibition at 100 nM [1] | SGLT1 % inhibition at 100 nM [2] | IC50 [1] | IC50 [2] |
| --- | --- | --- | --- | --- |
| Cc1cc(O)c(C2OC(CO)C(O)C(O)C2O)cc1Cc1ccc(CCNC(=O)NC(CO)CC(C)C)cc1 (stereo not drawn) [Compound 46] | 91% | 74% |  |  |
| COCCNC(=O)NCCc1ccc(Cc2cc([C@@H]3O[C@H](CO)[C@@H](O)[C@H](O)[C@H]3O)c(O)cc2C)cc1 [Compound 31] |  |  | 39 nM | 148 nM |
| Cc1cc(O)c([C@@H]2O[C@H](CO)[C@@H](O)[C@H](O)[C@H]2O)cc1Cc1ccc(CCNC(=O)NC2(CO)CCCC2)cc1 [Compound 23] |  |  | 19 nM | 19 nM |
| CCC(CO)(CO)NC(=O)NCCc1ccc(Cc2cc([C@@H]3O[C@H](CO)[C@@H](O)[C@H](O)[C@H]3O)c(O)cc2C)cc1 [Compound 38] | 83% | 89% |  |  |
| CCC(CO)NC(=O)NCCc1ccc(Cc2cc([C@@H]3O[C@H](CO)[C@@H](O)[C@H](O)[C@H]3O)c(O)cc2C)cc1 (stereo partly drawn) [Compound 50] | 77% | 71% |  |  |
| Cc1cc(O)c([C@@H]2O[C@H](CO)[C@@H](O)[C@H](O)[C@H]2O)cc1Cc1ccc(CCNC(=O)NCc2cc(Cl)cc(Cl)c2)cc1 [Compound 27] |  |  | 15 nM | 54 nM |
| CSCC[C@@H](CO)NC(=O)NCCc1ccc(Cc2cc([C@@H]3O[C@H](CO)[C@@H](O)[C@H](O)[C@H]3O)c(O)cc2C)cc1 [Compound 47] | 89% | 73% |  |  |
| Cc1cc(O)c([C@@H]2O[C@H](CO)[C@@H](O)[C@H](O)[C@H]2O)cc1Cc1ccc(CCNC(=O)NCc2cccs2)cc1 [Compound 26] |  |  | 15 nM | 52 nM |
| Cc1cc(O)c([C@@H]2O[C@H](CO)[C@@H](O)[C@H](O)[C@H]2O)cc1Cc1ccc(OCCNC(=O)NC(CO)(CO)CO)cc1 [Compound 19] |  |  | 101 nM | 302 nM |
| Cc1cc(O)c([C@@H]2O[C@H](CO)[C@@H](O)[C@H](O)[C@H]2O)cc1Cc1ccc(CCNC(=O)NC2CCN(Cc3ccccc3)CC2)cc1 [Compound 33] |  |  | 11 nM | 12 nM |
| O=C(NCCc1ccc(Cc2cc([C@@H]3O[C@H](CO)[C@@H](O)[C@H](O)[C@H]3O)c(O)cc2Cl)cc1)NC(CO)(CO)CO [Compound 14, (1S)-1,5-anhydro-1-[4-chloro-5-[4-[2-[[[2-hydroxy-1,1-bis(hydroxymethyl)ethyl]aminocarbonyl]amino]ethyl]benzyl]-2-hydroxyphenyl]-D-glucitol] |  |  | 21 nM | 49 nM |
| Cc1cc(O)c([C@@H]2O[C@H](CO)[C@@H](O)[C@H](O)[C@H]2O)cc1Cc1ccc(CCNC(=O)NCC2CCCCC2)cc1 [Compound 28] |  |  | 18 nM | 64 nM |
| COc1cccc(CCNC(=O)NCCc2ccc(Cc3cc([C@@H]4O[C@H](CO)[C@@H](O)[C@H](O)[C@H]4O)c(O)cc3C)cc2)c1 [Compound 51] | 84% | 71% |  |  |

Results, then the compound that gave them:

| SGLT2 % inhibition at 100 nM [1] | SGLT1 % inhibition at 100 nM [2] | IC50 [1] | IC50 [2] | SMILES |
| --- | --- | --- | --- | --- |
| 80% | 66% |  |  | Cc1cc(O)c(C2OC(CO)C(O)C(O)C2O)cc1Cc1ccc(CCNC(=O)N2CCC3CCCCC3C2)cc1 (mixture of isomers) [Compound 143] |
| 84% | 65% |  |  | Cc1cc(O)c([C@@H]2O[C@H](CO)[C@@H](O)[C@H](O)[C@H]2O)cc1Cc1ccc(CCNC(=O)NC2Cc3ccccc3C2)cc1 [Compound 138] |
| 77% | 68% |  |  | CCCNC(=O)NCCc1ccc(Cc2cc([C@@H]3O[C@H](CO)[C@@H](O)[C@H](O)[C@H]3O)c(O)cc2C)cc1 [Compound 56] |
| 79% | 71% |  |  | Cc1cc(O)c(C2OC(CO)C(O)C(O)C2O)cc1Cc1ccc(CCNC(=O)Nc2ccccc2C(O)c2ccccc2)cc1 (mixture of isomers) [Compound 137] |
| 90% | 90% |  |  | Cc1cc(O)c(C2OC(CO)C(O)C(O)C2O)cc1Cc1ccc(CCNC(=O)NC2CCN(Cc3ccccc3)C2)cc1 (mixture of isomers) [Compound 132] |
| 86% | 59% |  |  | Cc1cc(O)c([C@@H]2O[C@H](CO)[C@@H](O)[C@H](O)[C@H]2O)cc1Cc1ccc(CCNC(=O)NCCc2ccccc2)cc1 [Compound 71] |
| 76% | 62% |  |  | Cc1cc(O)c([C@@H]2O[C@H](CO)[C@@H](O)[C@H](O)[C@H]2O)cc1Cc1ccc(CCNC(=O)NCC2CCCO2)cc1 (stereo partly drawn) [Compound 65] |
| 79% | 65% |  |  | Cc1cc(O)c([C@@H]2O[C@H](CO)[C@@H](O)[C@H](O)[C@H]2O)cc1Cc1ccc(CCNC(=O)NCCCCc2ccccc2)cc1 [Compound 62] |
| 73% | 79% |  |  | COC(=O)C(NC(=O)NCCc1ccc(Cc2cc(C3OC(CO)C(O)C(O)C3O)c(O)cc2C)cc1)C(C)(C)C (stereo not drawn) [Compound 54] |
| 95% | 65% |  |  | Cc1cc(O)c([C@@H]2O[C@H](CO)[C@@H](O)[C@H](O)[C@H]2O)cc1Cc1ccc(CCNC(=O)NCc2cc3ccccc3s2)cc1 [Compound 61] |
| 83% | 62% |  |  | Cc1cc(O)c([C@@H]2O[C@H](CO)[C@@H](O)[C@H](O)[C@H]2O)cc1Cc1ccc(CCNC(=O)NCC(O)COc2ccccc2)cc1 (stereo partly drawn) [Compound 66] |
